Patent publication US5332759A, “Naphthalene amides and sulphonamides, processes for their preparation and pharmaceutical compositions containing them” (Adir et Compagnie, priority 1992, dated 1994)

Experiments:
[1] = test system: annular sections of the basilar artery of dogs; experiment: In vitro vasoconstrictive activity in the basilar artery of dogs; settings: dog basilar artery, endothelium removed
Method: Experiments are carried out on annular sections of the basilar artery of dogs from which the endothelium has been removed and which are placed in an organ chamber enabling the measurement of isometric contractions in the presence or absence of ketanserin.

[2] = test system: sections of the saphenous vein; experiment: Effect on sections of the saphenous vein; design: species or system dogs; settings: same doses as in the basilar artery test
[3] = test system: annular sections of the coronary artery; experiment: Effect on annular sections of the coronary artery; design: species or system dogs; settings: same doses as in the basilar artery test

SMILES | induction of contractions in arterial sections [1] | effect on sections of the saphenous vein [2] | effect on annular sections of the coronary artery [3] | EC50 ([1]; isometric contractions, read-out: EC50, contraction of basilar artery sections) [nM]
NCCc1c[nH]c2ccc(O)cc12 [serotonin, reference compound] | capable of inducing contractions |  |  | 
CNS(=O)(=O)Cc1ccc2cccc(CCN(C)C)c2c1 [Example 1, 2-{1-[2-(Dimethylamino)ethyl]naphth-7-yl}-N-methyl-methanesulphonamide] |  | does not show any significant effect | does not show any significant effect | ~1000
